The molecules below were run against T1, human chemokine receptor 2 isoform B (Homo sapiens, UniProt P41597) (assay: Calcium mobilization assay (FLIPR, CHOK1-CCR2B-A5 cells, 20 nM MCP-1)). Details: Ca mobilisation assay, CCR2, antagonist activity vs 20 nM MCP-1.
T1 construct: host or cells: CHOK1-CCR2B-A5 (CHO-K1)
T1 sequence (P41597 1-360 isoform P41597-2): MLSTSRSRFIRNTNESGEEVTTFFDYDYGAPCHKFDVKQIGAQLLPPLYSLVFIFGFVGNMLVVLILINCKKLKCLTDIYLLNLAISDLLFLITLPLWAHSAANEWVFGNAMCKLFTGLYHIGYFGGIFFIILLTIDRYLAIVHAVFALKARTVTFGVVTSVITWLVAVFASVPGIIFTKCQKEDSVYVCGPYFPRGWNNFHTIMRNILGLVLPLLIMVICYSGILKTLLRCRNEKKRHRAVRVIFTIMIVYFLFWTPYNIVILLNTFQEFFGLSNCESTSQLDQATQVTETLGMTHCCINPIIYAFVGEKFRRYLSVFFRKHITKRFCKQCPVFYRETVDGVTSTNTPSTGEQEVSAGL
Type: cell-based
In short: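 Antagonism read as IC50 against 20 nM MCP-1-evoked calcium rise (peak minus baseline Fluo-4 signal, FLIPR) in CCR2B-overexpressing CHO-K1 cells. Compounds were preincubated 20-30 min at 30 °C, with agonist activity recorded for 80 s on addition.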

Compared with `COC1CCC(CO)N(CCCCN2CCN(C(=O)/C=C/c3ccc(Cl)c(Cl)c3)CCC2=O)C1` (racemic) [Example 477], `NC(=O)COC1CCC(CO)N(CCCCN2CCN(C(=O)/C=C/c3ccc(Cl)c(Cl)c3)CCC2=O)C1` (racemic) [Example 485] is 4.2-fold lower in IC50: 313 nM for the first, 75 nM for the second. The second is the more potent here.

Compared with `COCC1CC(OC)C(O)CN1CCCCN1CCN(C(=O)/C=C/c2ccc(Cl)c(Cl)c2)CCC1=O` (racemic) [Example 478], `COCC1CCC(O)CN1CCCCN1CCN(C(=O)/C=C/c2ccc(Cl)c(Cl)c2)CCC1=O` (racemic) [Example 479] is 4.3-fold lower in IC50: 998 nM for the first, 232 nM for the second.

Going from `O=C(/C=C/c1ccc(Cl)c(Cl)c1)N1CCC(=O)N(CCCCN2CCC[C@H](O)[C@@H]2CO)CC1` (racemic) [Example 480] to `COCC1C(O)CCCN1CCCCN1CCN(C(=O)/C=C/c2ccc(Cl)c(Cl)c2)CCC1=O` (racemic) [Example 486], the IC50 rises from 53 nM to 205 nM (3.9-fold). The first is the more potent here.

Going from `CC1(C)CCN(CCCCN2CCN(C(=O)/C=C/c3ccc(Cl)c(Cl)c3)CCC2=O)CC1O` (racemic) [Example 481] to `CC1CCN(CCCN2CCN(C(=O)C=Cc3ccc(Cl)c(Cl)c3)CCC2=O)CC1O` (single isomer, unassigned) [Example 259, 1-[(E)-3-(3,4-Dichloro-phenyl)-acryloyl]-4-[3-((+, cis)-3-hydroxy-4-methyl-piperidin-1-yl)-propyl]-[1,4]diazepan-5-one], the IC50 rises from 9 nM to 57 nM (6.3-fold).

Compared with `CC1CCC(O)CN1CCCCN1CCN(C(=O)/C=C/c2ccc(Cl)c(Cl)c2)CCC1=O` (racemic) [Example 487], `CC1CCN(CCCN2CCN(C(=O)C=Cc3ccc(Cl)c(Cl)c3)CCC2=O)CC1O` (single isomer, unassigned) [Example 260, 1-[(E)-3-(3,4-Dichloro-phenyl)-acryloyl]-4-[3-((−, cis)-3-hydroxy-4-methyl-piperidin-1-yl)-propyl]-[1,4]diazepan-5-one] is 1.6-fold lower in IC50: 14 nM for the first, 9 nM for the second.

Compared with `COCC1C(O)CCC(C)N1CCCCN1CCN(C(=O)C=Cc2ccc(Cl)c(Cl)c2)CCC1=O` (racemic) [Example 488, (rac,cis)-1-[(E)-3-(3,4-Dichloro-phenyl)-acryloyl]-4-[4-(3-hydroxy-2-methoxymethyl-6-methyl-piperidin-1-yl)-butyl]-[1,4]diazepan-5-one], `O=C(/C=C/c1ccc(Cl)c(Cl)c1)N1CCC(=O)N(CCCCN2CCCCC2)CC1` [Example 9, 1-[(E)-3-(3,4-Dichloro-phenyl)-acryloyl]-4-(4-piperidin-1-yl-butyl)-[1,4]diazepan-5-one] is 4.4-fold lower in IC50: 618 nM for the first, 140 nM for the second. The second is the more potent here.

First: CC1(C)CCN(CC(O)CN2CCN(C(=O)/C=C/c3ccc(F)c(F)c3)CCC2=O)CC1O (racemic) [Example 499]
Second: C[C@@H]1C[C@H](O)CN(CC(O)CN2CCN(C(=O)/C=C/c3ccc(F)c(F)c3)CCC2=O)C1 (mixture of isomers) [Example 504]
The IC50 of the first is 3.8-fold lower: 84 nM for the first, 316 nM for the second. The first is the more potent here.

Compared with `O=C(/C=C/c1ccc(Cl)c(Cl)c1)N1CCC(=O)N(CC(O)CN2CC[C@H](O)[C@H](F)C2)CC1` (relative stereo) [Example 287], `CC1(CO)CCN(CC(O)CN2CCN(C(=O)C=Cc3ccc(Cl)c(Cl)c3)CCC2=O)CC1O` (single isomer, unassigned) [Example 330] is 140-fold lower in IC50: 848 nM for the first, 6 nM for the second. The second is the more potent here.

Going from `C[C@H]1[C@H](O)CCCN1CC(O)CCN1CCN(C(=O)/C=C/c2ccc(Cl)c(Cl)c2)CCC1=O` (relative stereo) [Example 362] to `CC1(CO)CCN(CC(O)CN2CCN(C(=O)C=Cc3ccc(Cl)c(Cl)c3)CCC2=O)CC1O` (single isomer, unassigned) [Example 331], the IC50 falls from 504 nM to 59 nM (8.5-fold).

Going from `O=C(/C=C/c1ccc(F)c(Cl)c1)N1CCC(=O)N(CCCCN2CC[C@H](F)[C@@H](O)C2)CC1` (relative stereo) [Example 389] to `CC1CCN(CCCN2CCN(C(=O)/C=C/c3ccc(F)c(Cl)c3)CCC2=O)CC1O` (single isomer, unassigned) [Example 191, 1-[(E)-3-(3-Chloro-4-fluoro-phenyl)-acryloyl]-4-[3-((−, cis)-3-hydroxy-4-methyl-piperidin-1-yl)-propyl]-[1,4]diazepan-5-one], the IC50 falls from 323 nM to 25 nM (13-fold). The second is the more potent here.

Compared with `CC1CCN(CCCN2CCN(C(=O)C=Cc3ccc(Cl)c(F)c3)CCC2=O)CC1O` (single isomer, unassigned) [Example 491, 1-[(E)-3-(4-Chloro-3-fluoro-phenyl)-acryloyl]-4-[3-((+,cis)-3-hydroxy-4-methyl-piperidin-1-yl)-propyl]-[1,4]diazepan-5-one], `O=C(/C=C/c1ccc(Cl)c(F)c1)N1CCC(=O)N(CCCN2CCCCC2)CC1` [Example 13, 1-[(E)-3-(4-Chloro-3-fluoro-phenyl)-acryloyl]-4-(3-piperidin-1-yl-propyl)-[1,4]diazepan-5-one] is 3.4-fold higher in IC50: 216 nM for the first, 727 nM for the second. The first is the more potent here.

Going from `CC1CCN(CCCN2CCN(C(=O)C=Cc3ccc(Cl)c(F)c3)CCC2=O)CC1O` (single isomer, unassigned) [Example 492, 1-[(E)-3-(4-Chloro-3-fluoro-phenyl)-acryloyl]-4-[3-((−,cis)-3-hydroxy-4-methyl-piperidin-1-yl)-propyl]-[1,4]diazepan-5-one] to `O=C(/C=C/c1ccc(F)c(Cl)c1)N1CCC(=O)N(CCCN2CCCCC2)CC1` [Example 11, 1-[(E)-3-(3-Chloro-4-fluoro-phenyl)-acryloyl]-4-(3-piperidin-1-yl-propyl)-[1,4]diazepan-5-one], the IC50 rises from 26 nM to 363 nM (14-fold). The first is the more potent here.

First: O=C(/C=C/c1cccc(Cl)c1)N1CCC(=O)N(CCN2CCCC2)CC1 [Example 1, 1-[(E)-3-(3-Chloro-phenyl)-acryloyl]-4-(2-pyrrolidin-1-yl-ethyl)-[1,4]diazepan-5-one]
Second: O=C(/C=C/c1ccc(Cl)c(Cl)c1)N1CCC(=O)N(CCN2CCCCC2)CC1 [Example 3, 1-[(E)-3-(3,4-Dichloro-phenyl)-acryloyl]-4-(2-piperidin-1-yl-ethyl)-[1,4]diazepan-5-one]
The IC50 of the first is 1.8-fold lower: 681 nM for the first, 1240 nM for the second. The first is the more potent here.

Compared with `O=C(/C=C/c1ccc(Cl)c(Cl)c1)N1CCC(=O)N(CCCN2CCCCC2)CC1` [Example 4, 1-[(E)-3-(3,4-Dichloro-phenyl)-acryloyl]-4-(3-piperidin-1-yl-propyl)-[1,4]diazepan-5-one], `O=C(/C=C/c1ccc(Cl)c(Cl)c1)N1CCC(=O)N(CCCN2CCOCC2)CC1` [Example 6, 1-[(E)-3-(3,4-Dichloro-phenyl)-acryloyl]-4-(3-morpholin-4-yl-propyl)-[1,4]diazepan-5-one] is 8.7-fold higher in IC50: 150 nM for the first, 1310 nM for the second.

`O=C(/C=C/c1ccc(F)c(F)c1)N1CCC(=O)N(CCCN2CCCCC2)CC1` [Example 7, 1-[(E)-3-(3,4-Difluoro-phenyl)-acryloyl]-4-(3-piperidin-1-yl-propyl)-[1,4]diazepan-5-one] and `O=C(/C=C/c1ccc2ccccc2c1)N1CCC(=O)N(CCN2CCCC2)CC1` [Example 25, 1-(E)-(3-Naphthalen-2-yl-acryloyl)-4-(2-pyrrolidin-1-yl-ethyl)-[1,4]diazepan-5-one] are within 1.5-fold of each other in IC50: 1290 nM for the first, 1020 nM for the second.

Going from `CN(CCCCN1CCN(C(=O)/C=C/c2ccc(Cl)c(Cl)c2)CCC1=O)C1CCOCC1` [Example 10, 1-[(E)-3-(3,4-Dichloro-phenyl)-acryloyl]-4-{4-[methyl-(tetrahydro-pyran-4-yl)-amino]-butyl}-[1,4]diazepan-5-one] to `CN(CCCN1CCN(C(=O)/C=C/c2ccc(Cl)c(Cl)c2)CCC1=O)C1CCCC1` [Example 37, 4-[-3-(Cyclopentyl-methyl-amino)-propyl]-1-[(E)-3-(3,4-dichloro-phenyl)-acryloyl]-[1,4]diazepan-5-one], the IC50 rises from 73 nM to 265 nM (3.6-fold). The first is the more potent here.

Going from `O=C(/C=C/c1ccc(OCc2ccccc2)cc1)N1CCC(=O)N(CCN2CCCC2)CC1` [Example 17, 1-[(E)-3-(4-Benzyloxy-phenyl)-acryloyl]-4-(2-pyrrolidin-1-yl-ethyl)-[1,4]diazepan-5-one] to `O=C(/C=C/c1cccc(Cl)c1)N1CCC(=O)N(CCN2CCC(c3ccccc3)CC2)CC1` [Example 32, 1-[(E)-3-Chloro-phenyl-acryloyl]-4-{2-[4-phenyl-piperidin-1-yl]-ethyl}-[1,4]diazepan-5-one], the IC50 rises from 756 nM to 1470 nM (1.9-fold). The first is the more potent here.

`O=C(/C=C/c1cccc(Cl)c1)N1CCC(=O)N(CCN2CCC(c3c[nH]c4cc(F)ccc34)CC2)CC1` [Example 27, 1-[(E)-3-(3-Chloro-phenyl)-acryloyl]-4-{3-[4-(6-fluoro-1H-indol-3-yl)-piperidin-1-yl]-ethyl}-[1,4]diazepan-5-one] and `O=C(/C=C/c1cccc(Cl)c1)N1CCC(=O)N(CCN2CCC(c3ccc(F)cc3)CC2)CC1` [Example 33, 1-[(E)-3-(3-Chloro-phenyl)-acryloyl]-4-[3-(4-(4-fluoro-phenyl)-piperidin-1-yl)-ethyl]-[1,4]diazepan-5-one] are within 1.5-fold of each other in IC50: 248 nM for the first, 343 nM for the second.

Compared with `O=C(/C=C/c1cccc(Cl)c1)N1CCC(=O)N(CCN2CCC(c3cccc(Cl)c3)CC2)CC1` [Example 34, 1-[(E)-3-(3-Chloro-phenyl)-acryloyl]-4-{2-[4-(3-chloro-phenyl)-piperidin-1-yl]-ethyl}-[1,4]diazepan-5-one], `O=C(/C=C/c1ccc(Cl)c(Cl)c1)N1CCC(=O)N(CCCNC2CCCC2)CC1` [Example 36, 4-[3-(Cyclopentyl-amino)-propyl]-1-[(E)-3-(3,4-dichloro-phenyl)-acryloyl]-[1,4]diazepan-5-one] is 1.9-fold lower in IC50: 1390 nM for the first, 725 nM for the second. The second is the more potent here.

`CN(CCCN1CCN(C(=O)/C=C/c2ccc(Cl)c(Cl)c2)CCC1=O)C1CCCCC1` [Example 39, 4-[3-(Cyclohexyl-methyl-amino)-propyl]-1-[(E)-3-(3,4-dichloro-phenyl)-acryloyl]-[1,4] diazepan-5-one] gave an IC50 of 538 nM.

— US7632829B2, “Diazepan derivatives” (Hoffmann-La Roche Inc., priority 2006, dated 2009)
